Test results reported in US5444042A, “Method of treatment of neurodegeneration with calpain inhibitors” (Cortex Pharmaceuticals, priority 1994, dated 1995).

Tests used:
Calpain I = target: T1, Calpain I (Homo sapiens, UniProt P07384); test: Calpain I 14C-methylated casein proteolysis (Table 1A); format: biochemical
T1 sequence (P07384 1-714): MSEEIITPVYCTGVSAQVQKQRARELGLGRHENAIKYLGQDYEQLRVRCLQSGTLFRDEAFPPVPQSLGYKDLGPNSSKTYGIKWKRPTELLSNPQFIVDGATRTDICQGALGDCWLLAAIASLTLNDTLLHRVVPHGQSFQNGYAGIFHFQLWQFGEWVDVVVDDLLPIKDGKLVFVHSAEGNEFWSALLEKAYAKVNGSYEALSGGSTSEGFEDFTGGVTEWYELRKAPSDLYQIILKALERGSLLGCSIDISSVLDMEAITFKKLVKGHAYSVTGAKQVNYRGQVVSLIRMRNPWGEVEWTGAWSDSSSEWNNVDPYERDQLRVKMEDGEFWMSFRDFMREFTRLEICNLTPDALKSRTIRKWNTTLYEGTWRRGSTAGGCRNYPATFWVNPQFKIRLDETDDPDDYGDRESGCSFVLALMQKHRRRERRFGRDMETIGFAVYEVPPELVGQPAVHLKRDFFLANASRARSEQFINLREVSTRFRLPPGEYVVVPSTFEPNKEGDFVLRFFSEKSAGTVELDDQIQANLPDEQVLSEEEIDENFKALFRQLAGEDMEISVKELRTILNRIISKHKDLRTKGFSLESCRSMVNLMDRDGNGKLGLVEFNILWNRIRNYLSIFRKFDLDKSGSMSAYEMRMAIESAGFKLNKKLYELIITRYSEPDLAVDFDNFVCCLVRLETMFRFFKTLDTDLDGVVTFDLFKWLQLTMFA
T1 sequence (P04632 1-268 partner): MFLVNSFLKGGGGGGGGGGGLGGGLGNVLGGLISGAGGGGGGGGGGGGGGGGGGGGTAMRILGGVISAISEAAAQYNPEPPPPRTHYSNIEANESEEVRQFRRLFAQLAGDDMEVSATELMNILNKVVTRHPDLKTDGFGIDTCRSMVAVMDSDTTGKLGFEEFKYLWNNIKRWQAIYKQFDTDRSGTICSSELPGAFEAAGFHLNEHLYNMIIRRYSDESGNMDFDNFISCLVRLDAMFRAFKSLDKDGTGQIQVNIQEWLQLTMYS

Calpain II = target: T2, Calpain II (Homo sapiens, UniProt P17655); test: Calpain II 14C-methylated casein proteolysis (Table 1A); format: biochemical
T2 construct: from tissue; purified by a cited method
T2 sequence (P17655 1-700): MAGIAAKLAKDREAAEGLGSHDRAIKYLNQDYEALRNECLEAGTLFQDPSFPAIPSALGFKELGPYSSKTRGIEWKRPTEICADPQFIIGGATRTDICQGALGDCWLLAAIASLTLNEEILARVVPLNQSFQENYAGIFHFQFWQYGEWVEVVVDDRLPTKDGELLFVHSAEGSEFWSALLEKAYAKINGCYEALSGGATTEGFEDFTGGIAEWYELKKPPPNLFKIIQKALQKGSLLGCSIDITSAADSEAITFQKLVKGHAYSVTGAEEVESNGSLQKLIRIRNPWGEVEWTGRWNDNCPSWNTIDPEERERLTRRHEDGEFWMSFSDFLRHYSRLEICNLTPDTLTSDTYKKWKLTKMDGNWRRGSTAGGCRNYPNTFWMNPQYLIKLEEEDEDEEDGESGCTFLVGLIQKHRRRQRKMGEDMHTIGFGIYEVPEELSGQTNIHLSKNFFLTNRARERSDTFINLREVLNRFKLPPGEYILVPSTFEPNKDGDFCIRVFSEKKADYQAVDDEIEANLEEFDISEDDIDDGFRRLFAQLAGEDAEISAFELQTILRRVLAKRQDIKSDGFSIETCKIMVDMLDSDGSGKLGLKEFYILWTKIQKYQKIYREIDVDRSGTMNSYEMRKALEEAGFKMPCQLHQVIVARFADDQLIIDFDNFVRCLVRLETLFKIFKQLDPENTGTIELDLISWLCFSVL
T2 sequence (P04632 1-268 partner): T1 sequence (P04632 1-268 partner)
Method: The isocoumarins are irreversible inhibitors of Calpain. We obtained IC50 values for a variety of these Calpain Inhibitors as a kinetic analysis of these compounds.
Calpains I and II were purified by the method of (Yoshimura, et al. 1983). (Kitahara 1984) provides an alternative purification scheme. Calpain II may alternatively be purchased from Sigma Chemical Co. as "Calcium Activated Neutral Protease." In this assay, purified Calpain was incubated with ^14 C-methylated casein in the presence of various Heterocyclic Compounds and the amount of acid-soluble radioactivity released by the action of Calpain was measured.

Row | Structure (SMILES) | IC50 (Calpain I) | IC50 (Calpain II)
1 | N=C(N)SCCCOc1oc(=O)c2cc(N)ccc2c1Cl [NH2 -CiTPrOIC (ACITIC), 7-amino-4-chloro-3-(3-isothiureidopropoxy)isocoumarin] | 10 µM | 120 µM
2 | N=C(N)SCCCOc1oc(=O)c2ccccc2c1Cl [CiTprOIC, 4-chloro-3-(3-isothiureidopropoxy)isocoumarin] | 100 µM | 70 µM
